Experimental data taken from ChEMBL document CHEMBL1909046, “DrugMatrix in vitro pharmacology data”.

How the values were obtained:
[1] = DRUGMATRIX: ATPase, Na+/K+ enzyme inhibition (substrate: ATP); assay type: tissue-based, Sus scrofa, Heart; conditions: Not Active = under 50% inhibition at 10 µM
[2] = molecular target: T1, Alpha-2A adrenergic receptor (Homo sapiens, UniProt P08913); assay type: cell membranes, Sf9, Membrane; conditions: sf9; note: in other assays of this panel Not Active means under 50% inhibition at 10 µM
T1 sequence (P08913 whole entry): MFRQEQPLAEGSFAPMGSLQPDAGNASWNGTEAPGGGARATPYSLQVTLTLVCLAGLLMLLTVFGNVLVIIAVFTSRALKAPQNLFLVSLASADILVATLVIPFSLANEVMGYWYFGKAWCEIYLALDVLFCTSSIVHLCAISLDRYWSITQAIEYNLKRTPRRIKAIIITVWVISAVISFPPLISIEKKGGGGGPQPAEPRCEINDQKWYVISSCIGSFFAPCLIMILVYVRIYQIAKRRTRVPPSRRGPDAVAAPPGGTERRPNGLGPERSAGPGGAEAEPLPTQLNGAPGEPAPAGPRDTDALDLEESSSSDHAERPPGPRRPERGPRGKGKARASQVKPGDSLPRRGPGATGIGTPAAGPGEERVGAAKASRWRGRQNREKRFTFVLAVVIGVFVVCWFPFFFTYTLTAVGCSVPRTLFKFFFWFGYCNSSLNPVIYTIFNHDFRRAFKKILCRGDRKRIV

[3] = molecular target: T2, 5-hydroxytryptamine receptor 2C (Homo sapiens, UniProt P28335); experiment: DRUGMATRIX: Serotonin (5-Hydroxytryptamine) 5-HT2C radioligand binding (ligand: [3H] Mesulergine); assay type: cell membranes, CHO-K1, Membrane; conditions: Not Active = under 50% inhibition at 10 µM
T2 sequence (P28335 whole entry): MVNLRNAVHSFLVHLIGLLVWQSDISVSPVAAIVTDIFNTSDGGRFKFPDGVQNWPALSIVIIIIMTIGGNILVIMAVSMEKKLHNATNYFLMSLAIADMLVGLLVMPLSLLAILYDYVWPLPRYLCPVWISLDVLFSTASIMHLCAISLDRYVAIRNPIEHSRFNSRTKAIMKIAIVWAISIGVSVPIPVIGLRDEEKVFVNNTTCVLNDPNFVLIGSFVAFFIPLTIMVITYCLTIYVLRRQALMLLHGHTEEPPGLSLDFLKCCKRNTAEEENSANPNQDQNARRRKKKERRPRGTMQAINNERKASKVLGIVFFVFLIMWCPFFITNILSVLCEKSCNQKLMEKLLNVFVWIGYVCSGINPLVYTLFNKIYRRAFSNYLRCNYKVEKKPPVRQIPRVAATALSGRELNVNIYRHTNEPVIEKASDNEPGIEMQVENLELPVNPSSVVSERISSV

Calcitonin receptor = molecular target: T3, Calcitonin receptor (Homo sapiens, UniProt P30988); assay type: cell membranes, Membrane; conditions: t47d; note: in other assays of this panel Not Active means under 50% inhibition at 10 µM
T3 sequence (P30988 whole entry): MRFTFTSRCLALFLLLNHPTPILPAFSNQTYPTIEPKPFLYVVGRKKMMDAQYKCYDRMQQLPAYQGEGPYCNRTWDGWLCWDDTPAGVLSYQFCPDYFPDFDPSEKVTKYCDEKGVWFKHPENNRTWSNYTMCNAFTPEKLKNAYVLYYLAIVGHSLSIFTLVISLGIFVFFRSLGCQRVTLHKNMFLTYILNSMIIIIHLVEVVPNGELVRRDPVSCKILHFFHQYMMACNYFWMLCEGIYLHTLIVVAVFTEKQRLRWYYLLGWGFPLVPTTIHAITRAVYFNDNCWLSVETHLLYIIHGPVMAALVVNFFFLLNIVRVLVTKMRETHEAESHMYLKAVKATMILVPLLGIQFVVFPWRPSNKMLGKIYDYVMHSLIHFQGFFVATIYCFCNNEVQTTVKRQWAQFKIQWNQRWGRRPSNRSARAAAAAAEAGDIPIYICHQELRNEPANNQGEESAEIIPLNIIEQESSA

Estrogen receptor = molecular target: T4, Estrogen receptor (Homo sapiens, UniProt P03372); conditions: sf9; note: in other assays of this panel Not Active means under 50% inhibition at 10 µM
T4 sequence (P03372 whole entry): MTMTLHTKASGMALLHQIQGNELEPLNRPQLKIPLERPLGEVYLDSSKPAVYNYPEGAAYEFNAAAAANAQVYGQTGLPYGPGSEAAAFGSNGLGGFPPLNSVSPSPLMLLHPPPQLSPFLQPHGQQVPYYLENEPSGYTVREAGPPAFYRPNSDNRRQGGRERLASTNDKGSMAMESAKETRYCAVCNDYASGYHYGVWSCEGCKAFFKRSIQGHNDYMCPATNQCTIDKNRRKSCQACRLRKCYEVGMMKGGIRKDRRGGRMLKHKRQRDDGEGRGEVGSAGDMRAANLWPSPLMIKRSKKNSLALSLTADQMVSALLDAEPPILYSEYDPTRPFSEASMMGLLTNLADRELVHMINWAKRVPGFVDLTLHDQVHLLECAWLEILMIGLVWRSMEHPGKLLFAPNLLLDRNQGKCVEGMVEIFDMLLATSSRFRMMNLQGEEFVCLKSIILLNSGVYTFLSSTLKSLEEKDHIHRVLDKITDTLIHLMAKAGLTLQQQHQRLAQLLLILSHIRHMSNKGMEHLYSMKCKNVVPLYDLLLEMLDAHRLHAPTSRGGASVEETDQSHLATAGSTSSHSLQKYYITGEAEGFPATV

Histamine H2 receptor = Histamine H2 receptor (Homo sapiens, UniProt P25021); assay type: cell membranes, CHO-K1, Membrane; conditions: cho-k1; note: in other assays of this panel Not Active means under 50% inhibition at 10 µM
Sequence of Histamine H2 receptor (P25021 whole entry): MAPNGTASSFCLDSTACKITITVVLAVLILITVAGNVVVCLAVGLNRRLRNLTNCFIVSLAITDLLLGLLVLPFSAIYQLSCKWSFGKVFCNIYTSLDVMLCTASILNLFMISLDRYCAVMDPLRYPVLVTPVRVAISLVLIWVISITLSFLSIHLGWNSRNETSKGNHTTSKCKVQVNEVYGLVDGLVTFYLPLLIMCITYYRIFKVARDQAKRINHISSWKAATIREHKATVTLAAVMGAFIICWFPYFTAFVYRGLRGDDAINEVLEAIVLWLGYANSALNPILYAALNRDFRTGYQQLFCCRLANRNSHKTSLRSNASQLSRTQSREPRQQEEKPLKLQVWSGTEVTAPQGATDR

Glucocorticoid receptor = molecular target: T5, Glucocorticoid receptor (Homo sapiens, UniProt P04150); conditions: hela s3; note: in other assays of this panel Not Active means under 50% inhibition at 10 µM
T5 sequence (P04150 whole entry): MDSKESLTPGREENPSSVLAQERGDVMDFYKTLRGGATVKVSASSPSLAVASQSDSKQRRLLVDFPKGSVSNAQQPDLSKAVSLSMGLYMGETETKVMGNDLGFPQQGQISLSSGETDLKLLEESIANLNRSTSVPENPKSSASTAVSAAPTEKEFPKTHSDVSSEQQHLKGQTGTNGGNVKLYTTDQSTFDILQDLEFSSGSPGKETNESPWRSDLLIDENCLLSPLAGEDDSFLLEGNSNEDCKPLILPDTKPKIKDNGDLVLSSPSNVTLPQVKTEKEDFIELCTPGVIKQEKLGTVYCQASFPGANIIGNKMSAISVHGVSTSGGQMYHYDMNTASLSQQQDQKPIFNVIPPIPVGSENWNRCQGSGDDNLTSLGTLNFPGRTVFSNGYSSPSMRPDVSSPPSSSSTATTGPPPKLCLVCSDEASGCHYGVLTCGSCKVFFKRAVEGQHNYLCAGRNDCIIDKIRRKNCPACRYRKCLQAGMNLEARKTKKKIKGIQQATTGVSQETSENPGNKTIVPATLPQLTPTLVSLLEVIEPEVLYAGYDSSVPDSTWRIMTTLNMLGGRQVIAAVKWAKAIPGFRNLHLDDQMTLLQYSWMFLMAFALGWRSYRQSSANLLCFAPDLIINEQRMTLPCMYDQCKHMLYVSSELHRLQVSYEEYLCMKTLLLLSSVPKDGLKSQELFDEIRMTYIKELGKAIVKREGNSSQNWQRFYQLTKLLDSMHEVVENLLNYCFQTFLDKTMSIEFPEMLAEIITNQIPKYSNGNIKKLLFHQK

Row | Structure (SMILES) | IC50 [1] | Ki [1] | IC50 [2] | IC50 ([3]; cho-k1) | IC50 (Calcitonin receptor) | IC50 (Estrogen receptor) | IC50 (Histamine H2 receptor) | IC50 (Glucocorticoid receptor) | IC50 ([3]; read-out: IC50) [nM] | Ki ([3]; read-out: Ki) [nM]
1 | CC(C)NCC(O)COc1ccc(CC(N)=O)cc1 (stereo not drawn) [ATENOLOL] | Not Active | Not Active | Not Active | Not Active | Not Active | Not Active | Not Active | – | – | –
2 | CNC[C@H](O)c1ccc(O)c(O)c1 [EPINEPHRINE] | Not Active | Not Active | – | Not Active | Not Active | Not Active | Not Active | – | – | –
3 | CCN1C[C@]2(COC)[C@H](O)C[C@H](OC)[C@@]34[C@@H]5C[C@@]6(O)[C@H](OC(=O)c7ccccc7)[C@@H]5[C@@](OC(C)=O)([C@@H]([C@H](OC)[C@H]23)[C@@H]14)[C@@H](O)[C@@H]6OC [ACONITINE] | Not Active | Not Active | Not Active | Not Active | Not Active | Not Active | Not Active | – | – | –
4 | NS(=O)(=O)c1cc(C(=O)O)c(NCc2ccco2)cc1Cl [FUROSEMIDE] | Not Active | Not Active | Not Active | Not Active | Not Active | Not Active | Not Active | – | – | –
5 | Cc1ccnc2c1NC(=O)c1cccnc1N2C1CC1 [NEVIRAPINE] | Not Active | Not Active | Not Active | Not Active | Not Active | – | Not Active | Not Active | – | –
6 | OC[C@H]1O[C@@H]2O[C@H]3[C@H](O)[C@@H](O)[C@@H](O[C@H]4[C@H](O)[C@@H](O)[C@@H](O[C@H]5[C@H](O)[C@@H](O)[C@@H](O[C@H]6[C@H](O)[C@@H](O)[C@@H](O[C@H]7[C@H](O)[C@@H](O)[C@@H](O[C@H]8[C@H](O)[C@@H](O)[C@@H](O[C@H]1[C@H](O)[C@H]2O)O[C@@H]8CO)O[C@@H]7CO)O[C@@H]6CO)O[C@@H]5CO)O[C@@H]4CO)O[C@@H]3CO [BETADEX] | Not Active | Not Active | Not Active | Not Active | Not Active | – | Not Active | Not Active | – | –
7 | O=C(O)CO [GLYCOLIC ACID] | Not Active | Not Active | Not Active | Not Active | Not Active | Not Active | Not Active | – | – | –
8 | COc1cc(NC(C)CCCN)c2ncccc2c1 (stereo not drawn) [PRIMAQUINE] | Not Active | Not Active | Not Active | Not Active | Not Active | Not Active | Not Active | – | – | –
9 | O=C(O)c1ccccc1 [BENZOIC ACID] | Not Active | Not Active | Not Active | Not Active | Not Active | Not Active | Not Active | – | – | –
10 | NC(=O)CN1CCCC1=O | Not Active | Not Active | Not Active | Not Active | Not Active | – | Not Active | Not Active | – | –
11 | C=CCO [ALLYL ALCOHOL] | Not Active | Not Active | Not Active | Not Active | Not Active | – | Not Active | Not Active | – | –
12 | CCN1CCN(C(=O)N[C@@H](C(=O)N[C@@H]2C(=O)N3[C@@H]2SC(C)(C)[C@@H]3C(=O)O)c2ccccc2)C(=O)C1=O [PIPERACILLIN] | Not Active | Not Active | Not Active | Not Active | Not Active | Not Active | Not Active | – | – | –
13 | CCCCCCNC(=O)n1cc(F)c(=O)[nH]c1=O [CARMOFUR] | Not Active | Not Active | Not Active | Not Active | Not Active | – | Not Active | Not Active | – | –
14 | CCN(CCO)CCCC(C)Nc1ccnc2cc(Cl)ccc12 (stereo not drawn) [HYDROXYCHLOROQUINE] | Not Active | Not Active | Not Active | Not Active | Not Active | – | Not Active | Not Active | – | –
15 | Cl.NC[C@H]1CC[C@H](C(=O)Oc2ccc(CCC(=O)O)cc2)CC1 [CETRAXATE HYDROCHLORIDE] | Not Active | Not Active | Not Active | Not Active | Not Active | Not Active | Not Active | – | – | –
16 | COc1cc([C@@H]2c3cc4c(cc3[C@H](O)[C@H]3COC(=O)[C@H]23)OCO4)cc(OC)c1OC [PODOFILOX] | Not Active | Not Active | Not Active | Not Active | Not Active | – | Not Active | Not Active | – | –
17 | c1ccc2c(c1)Nc1ccccc1S2 [PHENOTHIAZINE] | Not Active | Not Active | Not Active | – | Not Active | Not Active | Not Active | – | 2240 | 1170
18 | CCC1(c2ccccc2)C(=O)NC(=O)NC1=O [PHENOBARBITAL] | Not Active | Not Active | Not Active | Not Active | Not Active | Not Active | Not Active | – | – | –
19 | O=C(O)COC(=O)Cc1ccccc1Nc1c(Cl)cccc1Cl [ACECLOFENAC] | Not Active | Not Active | Not Active | Not Active | Not Active | Not Active | Not Active | – | – | –
